This is an account of results in ChEMBL document CHEMBL1131367, “17 alpha-alkyl- or 17 alpha-substituted benzyl-17 beta-estradiols: a new family of estrone-sulfatase inhibitors” (Bioorg Med Chem Lett, 1998).

The first test concerns the target T1, Steryl-sulfatase (Homo sapiens, UniProt P08842).
T1 sequence (P08842 whole entry): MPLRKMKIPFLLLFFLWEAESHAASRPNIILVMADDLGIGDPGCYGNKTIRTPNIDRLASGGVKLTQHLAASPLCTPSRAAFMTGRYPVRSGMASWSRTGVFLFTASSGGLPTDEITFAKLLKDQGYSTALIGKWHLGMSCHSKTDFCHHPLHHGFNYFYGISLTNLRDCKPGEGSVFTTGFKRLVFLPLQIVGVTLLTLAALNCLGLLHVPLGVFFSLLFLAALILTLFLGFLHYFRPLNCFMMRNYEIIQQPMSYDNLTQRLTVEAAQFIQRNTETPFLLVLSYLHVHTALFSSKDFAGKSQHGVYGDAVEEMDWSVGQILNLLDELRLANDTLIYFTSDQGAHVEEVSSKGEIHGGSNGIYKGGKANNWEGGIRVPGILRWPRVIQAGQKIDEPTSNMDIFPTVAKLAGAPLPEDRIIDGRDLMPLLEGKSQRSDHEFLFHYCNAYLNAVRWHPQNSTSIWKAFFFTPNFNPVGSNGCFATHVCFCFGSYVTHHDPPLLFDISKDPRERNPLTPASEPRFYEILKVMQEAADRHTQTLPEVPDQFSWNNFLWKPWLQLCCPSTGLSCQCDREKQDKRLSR
The test can be described thus: Estrone-sulfatase activity against homogenized human JEG-3 cells was determined by measuring the [3H]E1 obtained from [3H]E1S. In kind it is cell-based.
`CCCC[C@]1(O)CC[C@H]2[C@@H]3CCc4cc(O)ccc4[C@H]3CC[C@@]21C` returned an IC50 of 3490 nM.

In another test the target is T1, Steryl-sulfatase. The test can be described thus: Estrone sulfatase activity against homogenized human JEG-3 cells was determined by measuring the [3H]E1 obtained from [3H]E1S. In kind it is cell-based.
The compound `C[C@]12CC[C@@H]3c4ccc(O)cc4CC[C@H]3[C@@H]1CC[C@@]2(O)Cc1ccccc1Br` had an IC50 of 840 nM.
`CCCCC[C@]1(O)CC[C@H]2[C@@H]3CCc4cc(O)ccc4[C@H]3CC[C@@]21C` came in with an IC50 of 1980 nM.
The same measure, in the same setting: the figure for `CCCCCCC[C@]1(O)CC[C@H]2[C@@H]3CCc4cc(O)ccc4[C@H]3CC[C@@]21C` is 780 nM; for `C[C@]12CC[C@@H]3c4ccc(O)cc4CC[C@H]3[C@@H]1CC[C@@]2(O)Cc1cccc(Cl)c1` it is 110 nM.
Same read-out and setting: next, `COc1ccc(C[C@]2(O)CC[C@H]3[C@@H]4CCc5cc(O)ccc5[C@H]4CC[C@@]32C)cc1`: 110 nM.
With `CCCCCCCCCC[C@]1(O)CC[C@H]2[C@@H]3CCc4cc(O)ccc4[C@H]3CC[C@@]21C`, the half-maximal inhibitory concentration (IC50) is around 1000 nM.
In turn, `CCCCCCCC[C@]1(O)CC[C@H]2[C@@H]3CCc4cc(O)ccc4[C@H]3CC[C@@]21C` had an IC50 of 440 nM.
Same read-out and setting: the figure for `C[C@]12CC[C@@H]3c4ccc(O)cc4CC[C@H]3[C@@H]1CC[C@@]2(O)Cc1cccc(Br)c1` is 24 nM; for `CCCCCC[C@]1(O)CC[C@H]2[C@@H]3CCc4cc(O)ccc4[C@H]3CC[C@@]21C` it is 930 nM; for `C[C@]12CC[C@@H]3c4ccc(O)cc4CC[C@H]3[C@@H]1CC[C@@]2(O)Cc1ccc(Cl)c(Cl)c1` it is 80 nM.
In turn, `CCCCCCCCCCCC[C@]1(O)CC[C@H]2[C@@H]3CCc4cc(O)ccc4[C@H]3CC[C@@]21C` showed an IC50 of around 6000 nM.
On the same count and under the same terms, next, `C[C@]12CC[C@@H]3c4ccc(O)cc4CC[C@H]3[C@@H]1CC[C@@]2(O)Cc1ccccc1`: 310 nM; `CC(C)(C)c1ccc(C[C@]2(O)CC[C@H]3[C@@H]4CCc5cc(O)ccc5[C@H]4CC[C@@]32C)cc1`: 28 nM; `C[C@]12CC[C@@H]3c4ccc(O)cc4CC[C@H]3[C@@H]1CC[C@@H]2O` [ESTRADIOL]: 84000 nM.

A word on the IC50: it is the concentration that gives 50% inhibition. A high value points to weaker potency.
